Source: patent US20100298141A1, “SUBSTITUTED PYRIDINE N-OXIDE HERBICIDES” (E. I. DU PONT DE NEMOURS AND COMPANY, priority 2007, published 2010)

Assays:
[1] = system: barnyardgrass; assay: Test A pre-/postemergence greenhouse test; type: in vivo, Echinochloa crus-galli; conditions: for Barnyardgrass plant response rating: 0 to 100 scale
Summary of the method: (§1)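 Two application timings were run side by side in the greenhouse. Before emergence, compound went onto the soil surface of loam–sand pots as a directed spray; after emergence, plants at 2–10 cm and the one- to two-leaf stage were treated. Visual injury versus controls was rated at approximately day ten.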

[2] = system: redroot pigweed; assay: Test A pre-/postemergence greenhouse test; type: in vivo, Amaranthus retroflexus; conditions: for Pigweed plant response rating: 0 to 100 scale
Summary of the method: as §1

[3] = system: velvetleaf; assay: Test A pre-/postemergence greenhouse test; type: in vivo, Abutilon theophrasti; conditions: for Velvetleaf plant response rating: 0 to 100 scale
Summary of the method: as §1

[4] = system: downy brome; assay: Test C pre-/postemergence test; type: in vivo, Bromus tectorum
Summary of the method: (§2)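 Test chemicals were formulated with surfactant in a non-phytotoxic solvent and sprayed both on freshly planted seeds (preemergence) and on 1- to 4-leaf plants of 2–18 cm (postemergence). Flooded-paddy pots received compound directly into 3 cm of standing water, maintained for the test.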

[5] = system: green foxtail; assay: Test C pre-/postemergence test; type: in vivo, Setaria viridis
Summary of the method: as §2

[6] = system: wild oat; assay: Test C pre-/postemergence test; type: in vivo, Avena fatua
Summary of the method: as §2

[7] = system: Surinam grass; assay: Test C pre-/postemergence test; type: in vivo, Brachiaria decumbens; conditions: for Surinam Grass plant response rating: preemergence, scale 0 (no effect) to 100 (complete control)
Summary of the method: as §2

[8] = system: cocklebur; assay: Test C pre-/postemergence test; type: in vivo, Xanthium strumarium
Summary of the method: as §2

[9] = system: crabgrass; assay: Test C pre-/postemergence test; type: in vivo, Digitaria sanguinalis
Summary of the method: as §2

[10] = system: giant foxtail; assay: Test C pre-/postemergence test; type: in vivo, Setaria faberii
Summary of the method: as §2

[11] = system: johnsongrass; assay: Test C pre-/postemergence test; type: in vivo, Sorghum halepense
Summary of the method: as §2

[12] = system: kochia; assay: Test C pre-/postemergence test; type: in vivo, Kochia scoparia
Summary of the method: as §2

[13] = system: lambsquarters; assay: Test C pre-/postemergence test; type: in vivo, Chenopodium album
Summary of the method: as §2

[14] = system: eastern black nightshade; assay: Test C pre-/postemergence test; type: in vivo, Solanum ptycanthum
Summary of the method: as §2

[15] = system: common ragweed; assay: Test C pre-/postemergence test; type: in vivo, Ambrosia elation
Summary of the method: as §2

[16] = system: velvetleaf; assay: Test C pre-/postemergence test; type: in vivo, Abutilon theophrasti; conditions: for Velvetleaf plant response rating: preemergence, scale 0 (no effect) to 100 (complete control)
Summary of the method: as §2

[17] = system: rice; assay: Test C flooded paddy test; type: in vivo, Oryza sativa; conditions: Flood
Summary of the method: (§3)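 Greenhouse pots flooded to 3 cm above soil at time of treatment received compound via the water, which stayed at that level.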

[18] = system: duck salad; assay: Test C flooded paddy test; type: in vivo, Heteranthera limosa; conditions: Flood
Summary of the method: as §3

[19] = Postemergence, 125 g ai/ha, 0 is no effect, 100 is complete control
[20] = Postemergence, 500 g ai/ha, 0 is no effect, 100 is complete control
[21] = Preemergence, 125 g ai/ha, 0 no effect, 100 complete control
[22] = Preemergence, 500 g ai/ha, 0 to 100 scale where 0 is no effect and 100 is complete control
[23] = 31 g ai/ha, Preemergence, scale 0 to 100
[24] = 62 g ai/ha, preemergence, scale 0 (no effect) to 100 (complete control)
[25] = preemergence, 125 g ai/ha, scale 0 (no effect) to 100 (complete control)
[26] = 31 g ai/ha, scale 0 to 100 (0 no effect, 100 complete control)
[27] = 62 g ai/ha, scale 0 to 100, 0 no effect, 100 complete control, 13 to 15 days
[28] = 125 g ai/ha, scale 0 to 100, 0 no effect, 100 complete control, 13 to 15 days
[29] = 250 g ai/ha, scale 0 to 100 (0 no effect, 100 complete control)

CC(c1c(C(F)(F)F)nn(C)c1Cl)S(=O)(=O)c1cccc[n+]1[O-] (stereo not shown) [Compound 10]
70: Plant response rating (0 to 100), Bromegrass, Downy ([4]; Preemergence, 250 g ai/ha) | Foxtail, Green plant response rating [5, 23] | Johnsongrass plant response rating [11, 23] | Plant response rating, Rice [17, 28]
5: Velvetleaf plant response rating ([16]; 125 g ai/ha)
10: Bromegrass, Downy plant response rating [4, 25]
60: Pigweed plant response rating [2, 20] | Velvetleaf plant response rating [3, 21] | Plant response rating, Velvetleaf [3, 22] | Oat, Wild plant response rating [6, 25] | Ragweed plant response rating [15, 23]
80: Barnyardgrass plant response rating [1, 19] | Kochia plant response rating [12, 25] | Ragweed plant response rating [15, 24] | Plant response rating, Rice [17, 29] | Plant response rating, Ducksalad [18, 27]
90: Barnyardgrass plant response rating [1, 20] | Nightshade plant response rating [14, 23] | Plant response rating, Ducksalad [18, 29]
100: Barnyardgrass plant response rating [1, 21] | Plant response rating, Barnyardgrass [1, 22] | Pigweed plant response rating [2, 21] | Plant response rating, Pigweed [2, 22] | Plant response rating (0 to 100), Foxtail, Green ([5]; Preemergence, 250 g ai/ha) | Foxtail, Green plant response rating [5, 25] | Plant response rating (0 to 100), Surinam Grass ([7]; Preemergence, 250 g ai/ha) | Surinam Grass plant response rating ([7]; 125 g ai/ha) | Crabgrass, Large plant response rating [9, 23] | Crabgrass, Large plant response rating [9, 24] | Plant response rating (0 to 100), Crabgrass, Large ([9]; Preemergence, 250 g ai/ha) | Crabgrass, Large plant response rating [9, 25] | Foxtail, Giant plant response rating [10, 24] | Plant response rating (0 to 100), Foxtail, Giant ([10]; Preemergence, 250 g ai/ha) | Foxtail, Giant plant response rating [10, 25] | Johnsongrass plant response rating [11, 24] | Plant response rating (0 to 100), Johnsongrass ([11]; Preemergence, 250 g ai/ha) | Johnsongrass plant response rating [11, 25] | Plant response rating (0 to 100), Kochia ([12]; Preemergence, 250 g ai/ha) | Plant response rating (0 to 100), Lambsquarters ([13]; Preemergence, 250 g ai/ha) | Lambsquarters plant response rating [13, 25] | Plant response rating (0 to 100), Nightshade ([14]; Preemergence, 250 g ai/ha) | Nightshade plant response rating [14, 25] | Plant response rating (0 to 100), Ragweed ([15]; Preemergence, 250 g ai/ha) | Ragweed plant response rating [15, 25]
40: Kochia plant response rating [12, 24]
65: Plant response rating (0 to 100), Oat, Wild ([6]; Preemergence, 250 g ai/ha)
85: Foxtail, Green plant response rating [5, 24] | Foxtail, Giant plant response rating [10, 23] | Plant response rating, Ducksalad [18, 28]
30: Pigweed plant response rating [2, 19] | Velvetleaf plant response rating [3, 20] | Plant response rating, Ducksalad [18, 26]
75: Plant response rating (0 to 100), Velvetleaf ([16]; Preemergence, 250 g ai/ha)
98: Surinam Grass plant response rating ([7]; 62 g ai/ha) | Lambsquarters plant response rating [13, 24] | Nightshade plant response rating [14, 24]
0: Velvetleaf plant response rating [3, 19] | Bromegrass, Downy plant response rating [4, 23] | Bromegrass, Downy plant response rating [4, 24] | Oat, Wild plant response rating [6, 23] | Oat, Wild plant response rating [6, 24] | Cocklebur plant response rating [8, 23] | Cocklebur plant response rating [8, 24] | Plant response rating (0 to 100), Cocklebur ([8]; Preemergence, 250 g ai/ha) | Cocklebur plant response rating [8, 25] | Kochia plant response rating [12, 23] | Lambsquarters plant response rating [13, 23] | Velvetleaf plant response rating ([16]; 62 g ai/ha) | Plant response rating, Rice [17, 26]
25: Plant response rating, Rice [17, 27]
